Entries after “also recorded” stand apart in the source; their conditions may differ.
Assays:
human insulin promoter = test: Insulin promoter-GFP (ins-GFP transgene) assay in T6PNE cells; assay type: cell-based; settings: for repression of insulin promoter activity (qualitative): T6PNE ins-eGFP
Source text: Primary β-cells are in short supply and have a strong tendency to undergo apoptosis when manipulated in culture. Therefore, a β-cell model was used for the studies regarding β-cell growth and differentiation. T6PNE cells were derived from human fetal islets and were engineered to express the transcription factors PDX-1, NeuroD1, and E47, which are all present in the human β-cell. […] Titrations were used to measure the mRNA or protein amount of insulin expression. In order to adapt the cell line for HTS assays, a lentiviral vector expressing the insulin promoter-e green fluorescent protein (GFP) cassette ins-GFP transgene was used to infect T6PNE. As a result, compounds that targeted the insulin promoter could be visibly detected by changes in the green channel (observing GFP). […] This increase correlates with that of the endogenous insulin message. Therefore, expression in the transfunctioned cell can be used as a baseline so both up and down regulators of the insulin promoter can be monitored in the screening assays. […] of the insulin promoter are useful for analyzing the governing pathways in diabetes. However, both up and down modulators were screened for. […] Insulin expression was monitored and visualized by the ins-GFP transgene. Hits were determined and dependent on the ability to differentiate between a baseline condition and the corresponding positive or negative control. […]
The HTS was performed in a 384-well format where primed T6PNE cells express the ins-GFP transgene and the test compound was added 24 hours later. […] The Images were then analyzed using algorithms (Jeff Price at the Screening Center at the Burnham Institute). Images of each well were captured in the blue channel (to evaluate cell number), the green channel (a readout for insulin gene expression) and the red channel (to eliminate autofluorescent compounds). […] Furthermore, hits are determined by applying threshold intensity gates on the green channel and counting the number of cells above or below that gate in a given well. […]

[1] = test system: endogenous insulin message; test: Endogenous insulin message in T6PNE cells; assay type: cell-based, human
Source text: Primary β-cells are in short supply and have a strong tendency to undergo apoptosis when manipulated in culture. Therefore, a β-cell model was used for the studies regarding β-cell growth and differentiation. T6PNE cells were derived from human fetal islets and were engineered to express the transcription factors PDX-1, NeuroD1, and E47, which are all present in the human β-cell. […] Titrations were used to measure the mRNA or protein amount of insulin expression. In order to adapt the cell line for HTS assays, a lentiviral vector expressing the insulin promoter-e green fluorescent protein (GFP) cassette ins-GFP transgene was used to infect T6PNE. As a result, compounds that targeted the insulin promoter could be visibly detected by changes in the green channel (observing GFP). […] Therefore, expression in the transfunctioned cell can be used as a baseline so both up and down regulators of the insulin promoter can be monitored in the screening assays. […] Insulin expression was monitored and visualized by the ins-GFP transgene. Hits were determined and dependent on the ability to differentiate between a baseline condition and the corresponding positive or negative control. […]
A few of these were selected for further evaluation. […] The initial confirmatory assay of BIM5078 was performed by measuring the readout of the insulin-GFP transgene. […]

rat HNF4α LBD = molecular target: T1, rat HNF4α LBD (Rattus norvegicus, UniProt P22449); test: Direct binding by quenching of intrinsic fluorescence of HNF4α LBD; settings: quenching of Tyr/Trp intrinsic fluorescence
T1 sequence (P22449 147-377 limits assumed): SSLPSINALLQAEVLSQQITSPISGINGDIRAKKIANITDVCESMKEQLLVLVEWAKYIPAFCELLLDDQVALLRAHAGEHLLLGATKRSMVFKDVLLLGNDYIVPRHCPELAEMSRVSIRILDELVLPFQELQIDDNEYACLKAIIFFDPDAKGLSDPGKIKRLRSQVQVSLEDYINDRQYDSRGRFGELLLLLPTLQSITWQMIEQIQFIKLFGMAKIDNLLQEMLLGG
Experimental: FIGS. 12A and 12B show BIM5078 binding to HNF4α ligand-binding domain (LBD). A. Binding of BIM5078 was analyzed by quenching of intrinsic fluorescence of rat HNF4α LBD aromatic amino acids Tyr/Trp. […] B. BIM5078 was docked to rat HNF4α LBD (PDB Code: 1m7w) using the program BioMedCache. […] Moreover, the chloro group of BIM5078 forms a hydrophobic interaction with the side chain of the binding-pocket residue Val 178.

human PPARγ = molecular target: T2, human PPARγ (Homo sapiens, UniProt P37231); test: PPAR response element (PPRE)-luciferase reporter assay in HeLa cells; assay type: cell-based; settings: enhanced by co-transfection with PPARγ expression vector
T2 construct: expressed in transfected cells; host or cells: HeLa cells
T2 sequence (P37231 1-505): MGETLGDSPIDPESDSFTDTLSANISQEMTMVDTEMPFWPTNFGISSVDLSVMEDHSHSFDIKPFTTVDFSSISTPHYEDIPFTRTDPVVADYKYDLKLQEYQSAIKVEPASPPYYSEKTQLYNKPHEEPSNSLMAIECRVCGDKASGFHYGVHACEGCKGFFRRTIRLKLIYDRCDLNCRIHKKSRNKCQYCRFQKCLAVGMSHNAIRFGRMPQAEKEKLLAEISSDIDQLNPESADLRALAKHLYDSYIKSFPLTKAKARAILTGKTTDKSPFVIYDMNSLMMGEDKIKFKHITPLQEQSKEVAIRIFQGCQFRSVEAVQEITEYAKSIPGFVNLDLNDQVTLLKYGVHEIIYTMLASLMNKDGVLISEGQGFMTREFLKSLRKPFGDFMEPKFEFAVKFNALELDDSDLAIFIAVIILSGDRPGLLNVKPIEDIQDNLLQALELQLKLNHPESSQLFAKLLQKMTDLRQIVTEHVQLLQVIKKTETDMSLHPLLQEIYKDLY
Experimental: The core structure of BIM5078, benzimidazole, is related to known PPARγ compounds that functions as agonists or antagonists. BIM5078 was used in a PPAR response element (PPRE)-luciferase reporter assay. HeLa cells were co-transfected with a PPAR response element (PPRE) reporter plasmid and a human PPARγ expression vector. […] Known PPARγ agonists were used as positive controls. The same PPARγ agonist compounds were tested on T6PNE ins-eGFP for their ability to repress the insulin promoter. Known PPARγ agonists are unable to suppress insulin gene transcription. Similarly, other PPAR agonists of the alpha and delta class were also negative in the assay. However, because HNF4α also binds to PPREs, BIM5078's ability to bind HNF4α was further investigated.

HBV = test: HBsAg expression in Huh7 cells transfected with wild type HBV construct (pWTD); assay type: cell-based, Hepatitis B virus; settings: GP33 and GP36 doublet bands
Source text: BIM5078 is an HNF4α antagonist and can be useful in treatment of diseases involving HNF4α modulation. There are a number of HNF4α binding sites in the HBV genome, including the enhancer region, the core promoter and the polymerase. BIM5078 can downregulate the core and polymerase, and it has been discovered that it can effectively suppress or eliminate HBV proliferation. Also, the HNF4α binding sites are well-conserved and no mutations of these sites have yet been discovered in the various HBV strains. Thus, targeting HNF4α can circumvent the resistance seen with traditional therapies. […] The ability of the HNF4α antagonist BIM5078 to reduce viral production in Huh7 cells transfected with the wild-type HBV construct (pWTD) was tested. […] The large decrease in the two glycosylation forms of the surface antigen was visualized as doublet bands (FIG. 11).

HNF1α = HNF1α transcription; assay type: cell-based
Experimental: HNF1α is a downstream target of HNF4α and has a known binding site on the human insulin gene promoter. […] It is unclear whether HNF4α is modulating the insulin promoter directly or indirectly through a downstream target. Overexpression of HNF1α or HNF4α would overcome the repressive effects of BIM5078. The repressive effect of BIM5078 was lost when it was added to T6PNE cells with high levels of induced E47 (FIG. 10). High E47 levels are thought to resemble the normal state of a (3-cell while low levels of E47 to simulate the stress condition.

HNF4α = molecular target: T3, HNF4α (Homo sapiens, UniProt P41235); test: HNF4α subcellular localization; assay type: cell-based
T3 construct: endogenous in cells
T3 sequence (P41235 1-474): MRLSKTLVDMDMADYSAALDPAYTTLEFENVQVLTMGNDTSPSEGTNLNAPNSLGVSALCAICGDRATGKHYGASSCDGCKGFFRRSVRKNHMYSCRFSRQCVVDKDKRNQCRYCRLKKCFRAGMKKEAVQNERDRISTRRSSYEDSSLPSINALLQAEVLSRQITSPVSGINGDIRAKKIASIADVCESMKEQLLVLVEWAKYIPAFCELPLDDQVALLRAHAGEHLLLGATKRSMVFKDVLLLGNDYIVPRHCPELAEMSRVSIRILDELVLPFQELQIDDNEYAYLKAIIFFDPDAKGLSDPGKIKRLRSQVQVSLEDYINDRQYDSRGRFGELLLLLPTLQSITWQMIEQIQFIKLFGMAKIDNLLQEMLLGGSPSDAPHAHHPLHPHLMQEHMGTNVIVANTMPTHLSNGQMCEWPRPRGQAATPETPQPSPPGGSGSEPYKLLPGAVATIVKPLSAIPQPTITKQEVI
Source text: Many ligands for nuclear receptor subfamilies induce the translocation of their receptors between the cytoplasm and the nucleus.

[2] = hoFH patients, 10 mg/day added to maximal-dose statin regimen; cited from earlier work

O=[N+]([O-])c1cccc(S(=O)(=O)n2cnc3ccccc32)c1 [BI-6001, 1-(3-Nitrophenylsulfonyl)-1H-benzo[d]imidazole]
melting point: 154 to 156 °C

Cc1nc2ccccc2n1S(=O)(=O)c1cccc([N+](=O)[O-])c1 [BI-6002, 2-Methyl-1-(3-nitrophenylsulfonyl)-1H-benzo[d]imidazole]
melting point: 148 to 150 °C

Cc1nc2ccccc2n1C(=O)c1cc([N+](=O)[O-])ccc1Cl [BI-6009, 1-(2-Chloro-5-nitrobenzoyl)-2-methyl-1H-benzo[d]imidazole]
melting point: 157 to 159 °C

O=C(c1cc([N+](=O)[O-])ccc1Cl)n1cnc2ccccc21 [BI-6010, 1-(2-Chloro-5-nitrobenzoyl)-1H-benzo[d]imidazole]
melting point: 149 to 151 °C

Cc1nc2ccccc2n1C(=O)c1cccc([N+](=O)[O-])c1 [BI-6011, 2-Methyl-1-(3-nitrobenzoyl)-1H-benzo[d]imidazole]
melting point: 120 to 122 °C

O=C(c1cccc([N+](=O)[O-])c1)n1cnc2ccccc21 [BI-6012, 1-(3-Nitrobenzoyl)-1H-benzo[d]imidazole]
melting point: 133 to 135 °C

CCOC(=O)c1ccc(Cl)c(S(=O)(=O)n2c(C)nc3ccccc32)c1 [BI-6013, 1-(5-Carbethoxy-2-chlorophenylsulfonyl)-2-methyl-1H-benzo[d]imidazole]
melting point: 110 to 112 °C

Cc1ccc([N+](=O)[O-])cc1S(=O)(=O)n1cnc2ccccc21 [BI-6016, 1-(2-Methyl-5-nitrobenzenesulfonyl)benzimidazole]
melting point: 159 to 161 °C

Cc1nc2ccccc2n1S(=O)(=O)c1cc([N+](=O)[O-])ccc1Cl [BIM5078, 1-[(2′-chloro-5-nitrophenyl)sulfonyl]-2-methyl-1H-benzimidazole]
suppression of GFP expression (insulin-GFP transgene) (human insulin promoter; 5 μM, T6PNE cells): up to 30 fold | repression of insulin promoter activity (qualitative) (human insulin promoter): downregulator of human insulin promoter activity | repression of insulin message ([1]; 5 μM, insulin message induced by 1 μM 4-hydroxytamoxifen): 6 fold | repressive effect on insulin expression at high E47 ([1]; T6PNE cells with high levels of induced E47 (high 4OHT)): lost | Kd (rat HNF4α LBD): 11.9 nM | activation of PPRE reporter (human PPARγ): activated the PPRE | HBV surface antigen (HBsAg) level (HBV): decreased the HBsAg protein expression; also recorded: decreased their levels of surface antigen | effect on HNF1α transcription (HNF1α): decrease the HNF1α transcription | localization of HNF4α upon compound addition (HNF4α): localized entirely in the nucleus

O=C1[C@H](CC[C@H](O)c2ccc(F)cc2)[C@@H](c2ccc(O)cc2)N1c1ccc(F)cc1 [ezetimibe]
total reduction of LDL-C levels [2]: 27%

CCCCCCCCCCCCCCCC(=O)O [palmitic acid, reference compound]
repression of insulin promoter activity (qualitative) (human insulin promoter): suppresses the insulin promoter activity in a dose-dependent fashion
